Experiments:
Type in all cases: in vivo, mouse
[1] = test system: bleomycin-induced pulmonary fibrosis; assay: bleomycin-induced pulmonary fibrosis, preventive and therapeutic models
Method: Methods: To evaluate the preventive and therapeutic effects of compound I-1 on pulmonary fibrosis, bleomycin was used to establish two animal models of pulmonary fibrosis with different drug intervention (6-8 weeks, C57BL/6, male). Bleomycin (0.025U, Code.D11063, OKA, China) was injected by a single intratracheal application. Equal volumes of sterilized saline served as a control. (I) Preventive model of bleomycin-induced pulmonary fibrosis. Compounds compound I-1, positive control DB1976, or vehicle (saline) were treated (injected intraperitoneally, i.p.) immediately after single bleomycin injection for 4 weeks (FIG. 4a). (II) Therapeutic model of bleomycin-induced pulmonary fibrosis. Mice were pre-charged with bleomycin for 11 days to induced pulmonary fibrosis, then treated with compounds compound I-1, positive control DB1976, or vehicle (saline) for 17 days, total time is 4 weeks after bleomycin treatment (FIG. 4h). After the last day of treatment of both models, mice were fasted overnight and euthanized. A part of lung was fixed with paraformaldehyde, embedded with paraffin, and then sliced for H&E and Sirius red staining to check pathological features, and Ashcroft scores. Hubner, R. H. et al. Biotechniques 44, 507-511, 514-507, doi:10.2144/000112729 (2008). Another part of lung were collected and stored in −80° C. after liquid nitrogen quick-freezing, RNA isolation (Code.R6934, OMEGA, USA), first cDNA reverse (Code.AT341, TransGen, China), SYBR mix (Code.AQ601, TransGen, China) for Q-PCR (LightCycle96, Roche) to verify several fibrosis-related genes mRNA level, such as, Col1a1 and Col1a2.

[2] = test system: bleomycin-induced skin fibrosis; assay: bleomycin-induced skin fibrosis, preventive and therapeutic models
Method: Methods: To evaluate the preventive and therapeutic effects of compound I-1 on skin fibrosis, bleomycin was used to establish two animal models of skin fibrosis with different drug intervention (6-8 weeks, C57BL/6, male). Skin fibrosis was induced by local injection of bleomycin (0.5 mg/mL, 0.1 ml/mouse) in a skin defined area (˜1 cm^2), where the hair was removed in advance, at the upper back every other day. Subcutaneous saline injections served as controls. (I) Preventive model of bleomycin-induced skin fibrosis: Compound I-1, positive control DB1976, or vehicle (saline) were injected i.p. simultaneously with bleomycin for 4 weeks (FIG. 3a). (II) Therapeutic model of bleomycin-induced skin fibrosis: Mice were pre-charged with bleomycin for 3 weeks to induce skin fibrosis, then treated with compound I-1, positive control DB1976, or vehicle (saline) for another 3 weeks, total time is 6 weeks after the first bleomycin treatment (FIG. 30. After the last day of treatment of both models, mice were fasted overnight and euthanized. Part of the skin was fixed with paraformaldehyde after fully flat on a foil, embedded with paraffin, and then sliced for H&E, Sirius red and Masson staining to check pathological features. The epidermal thickness of each sample was calculated quantitatively with image J. Another part of skin was collected and stored at −80° C. after liquid nitrogen quick-freezing, RNA isolation (Code.R6934, OMEGA, USA), first cDNA reverse (Code.AT341, TransGen, China), SYBR mix (Code.AQ601, TransGen, China) for Q-PCR (LightCycler® 96, Roche) to verify several fibrosis-related genes mRNA level, such as, Col1a1 and Col1a2.

[3] = test system: HFD/CCL4-induced NASH and liver fibrosis; assay: High-fat diet (HFD) combined with CCl4 (lower dose)-induced NASH model
Excerpt: (§1) Methods: To evaluate the potential therapeutic effects of compound I-1 on liver disorders, including liver fat steatosis and accumulation, nonalcoholic fatty liver disease (NAFLD), nonalcoholic steatosis hepatitis (NASH), and liver fibrosis, three mice models (C57BL/6, male, 8 weeks old) were used. (I) NASH diet (Code.TD.160785, ENVIGO, USA)-induced NASH model: All mice were fed with NASH diet for 10 weeks. Mice were then randomly distributed into three groups, and each group was assigned to be injected daily with vehicle, compound I-1 (2.5mpk or 5mpk, i.p.), or DB1976 (2.5mpk, i.p, as a positive control) for another 6 weeks on continuous NASH diet. A group with normal regular diet was treated with vehicle as health control. (II) High-fat diet (HFD) combinate with CCl4 (lower dose)—induced NASH model. Mice were fed with normal regular diet or HFD (kcal fat 60%—D12492, research diets) for 10 weeks, then the HFD mice were divided into two groups randomly based on the rule of minimum weight differences. Each group was assigned to be injected with CCl4 (25% v/v in olive oil, 0.5 mL/kg body weight) or pure olive oil (i.p.) twice a week for 4 weeks. Compound 1-1 or vehicle (saline) were injected (i.p.) once daily for 4 weeks at the same time with CCl4 under continuous HFD. (III) CCl4 (higher dose)—induced liver fibrosis model. Liver fibrosis was induced by CCl4 injection (20% v/v in olive oil, 10 mL/kg body weight) twice a week for 6 weeks, compound I-1 or vehicle are also injected (i.p.) once daily for 6 weeks at the same time with CCl4 application. Ail the mice in the above-mentioned three models were observed daily. After the last day of treatment of all the models, mice were fasted overnight and euthanized. Serum was collected after centrifuging of the whole blood at 4 degrees, and blood biochemistry parameters were tested through automatic biochemical instrument (BS-240VET, Mindray). Part of liver tissues were fixed with paraformaldehyde, embedded with paraffin, and then sliced for H&E or Sirius red staining to check pathological features, and NAFLD scores. Kleiner, D. E. et al. Hepatology 41, 1313-1321, doi:10.1002/hep.20701 (2005). Part of liver tissues were used fresh, embedded in optimum cutting temperature compound, and sectioned. The sections were stained with 0.5% oil red 0 according to standard procedures after fixed in 4% paraformaldehyde in PBS. Another part of liver tissues were collected and stored in −80° C. after liquid nitrogen quick-freezing, RNA. isolation (Code.R6934, OMEGA., USA), first cDNA reverse (Code.AT341, TransGen, China), SYBR mix (Code.AQ601, TransGen, China) for Q-PCR (LightCycler®96, Roche) to verify genes mRNA level, such as, fibrosis-related genes, Col1a1 and Col1a2; inflammation-related genes, IL-6 and IL-1β.

NASH diet-induced NASH = NASH diet-induced NASH model
Excerpt: as §1

[4] = preventive model, 5mpk i.p., 4 weeks

N=C(N)c1ccc2nc(-c3ccc(NC(=O)[C@@H]4CCCN4C(=O)[C@@H]4CCCN4C(=O)c4ccc(-c5nc6ccc(C(=N)N)cc6[nH]5)cc4)cc3)[nH]c2c1 [Compound I-1, (S)-1-((4-(6-carbamimidoyl-1H-benzo[d]imidazol-2-yl)benzoyl)-L-prolyl)-N-(4-(6-carbamimidoyl-1H-benzo[d]imidazol-2-yl)phenyl)pyrrolidine-2-carboxamide]
pulmonary fibrosis progress (staining, Ashcroft scores, collagen deposition, Col1a1, Col1a2 mRNA) ([1]; preventive model, 5mpk i.p. for 4 weeks after single bleomycin injection): significantly prevented
bleomycin-induced pulmonary fibrosis ([1]; therapeutic model, 11 days after bleomycin then 17 days treatment, 5mpk): reversed and impede
skin fibrosis progress ([2]; preventive model, 5mpk i.p. simultaneously with bleomycin for 4 weeks, vs bleomycin/vehicle): significantly prevented
collagen deposition [2, 4]: reducing
epidermal thickness [2, 4]: reducing
mRNA level of Col1a1 and Col1a2 ([2]; preventive model, 5mpk i.p., 4 weeks, skin): decreasing
bleomycin-induced skin fibrosis ([2]; therapeutic model, 3 weeks bleomycin then 3 weeks treatment, 5mpk): significantly alleviated and reversed
level of serum ALT ([3]; fasting serum): tendency to reduce
serum triglyceride (TG) and total-cholesterol (TC) ([3]; fasting serum, i.p. once daily for 4 weeks): reduced
body weight, gWAT and iWAT weight radio increased by HFD/CCL4 ([3]; i.p. once daily for 4 weeks with CCl4 under HFD): reversed
reducing fat accumulation (H&E staining, liver steatosis score) ([3]; liver): not efficacious
reducing inflammatory response (inflammatory infiltrates, inflammation score, liver mRNA of IL-1β and IL-6) ([3]; liver): efficacious
collagen deposition (sirius red staining) and liver mRNA level of Col1a1 and Col1a2 ([3]; mouse, in vivo): reduced
hepatotoxicity under its effective concentration ([3]; mouse, in vivo): not hepatotoxic
liver fibrosis induced by HFD/CCL4 application ([3]; mouse, in vivo): significantly alleviated
efficacy when comparing with DB1976 (2.5mpk) (NASH diet-induced NASH; 2.5mpk i.p. daily for 6 weeks): lower efficacy
fat accumulation in liver (NASH diet-induced NASH; 2.5mpk i.p. daily for 6 weeks): decreased
metabolic disturbance by NASH diet (body weight, liver fat, ALT, LDL-C, TC, IL-6, IL-1β, Col1a1, Col1a2) (NASH diet-induced NASH; 2.5mpk i.p. daily for 6 weeks): tendency to alleviate
mRNA levels of IL-6, IL-1β and Col1a1, Col1a2 (NASH diet-induced NASH; 2.5mpk i.p. daily for 6 weeks, liver): lower
metabolic disturbance by NASH diet (body weight, liver fat, ALT, LDL-C, TC, IL-6, IL-1β, Col1a1, Col1a2) (NASH diet-induced NASH; 5mpk i.p. daily for 6 weeks): potently alleviated

Reference: patent US20240018129A1, “COMPOUNDS AS PU. 1 INHIBITORS” (PEKING UNIVERSITY, priority 2020, published 2024)
